Experimental data from ChEMBL document CHEMBL5537158, “Polymyxins with Potent Antibacterial Activity against Colistin-Resistant Pathogens: Fine-Tuning Hydrophobicity with Unnatural Amino Acids” (J Med Chem, 2024).
In brackets after ≈: the same amount, converted by molar mass. Activity calls are given as the source filed them. No cut-off for these calls is given here. Positions of bridges follow the written chain, without caps; N, C: chain ends. Non-standard residues stand in square brackets, D forms with d. Residues, ends and D or L forms follow the SMILES beside them. *: point of attachment. d(hPhe) = N[C@H](CCc1ccccc1)C(=O)O; hPhe = N[C@@H](CCc1ccccc1)C(=O)O; hLeu = CC(C)CC[C@H](N)C(=O)O; Octanoyl = CCCCCCCC(=O)*; Dab = NCC[C@H](N)C(=O)O

Tests used:
Pseudomonas aeruginosa [1] = test: Antimicrobial activity against Pseudomonas aeruginosa ATCC 27853 assessed as bacterial growth inhibition incubated for 20 hrs by broth microdilution method; type: functional
Klebsiella pneumoniae [2] = test: Antimicrobial activity against colistin resistant Klebsiella pneumoniae clinical isolate 1 assessed as bacterial growth inhibition incubated for 20 hrs by broth microdilution method; type: functional
Escherichia coli [3] = test: Antimicrobial activity against […] Escherichia coli harboring mcr-1 assessed as bacterial growth inhibition incubated for 20 hrs by broth microdilution method; type: functional
Klebsiella pneumoniae [4] = test: Antimicrobial activity against Klebsiella pneumoniae ATCC 13883 assessed as bacterial growth inhibition incubated for 20 hrs by broth microdilution method; type: functional
Klebsiella pneumoniae [5] = test: Antimicrobial activity against colistin resistant Klebsiella pneumoniae clinical isolate 2 assessed as bacterial growth inhibition incubated for 20 hrs by broth microdilution method; type: functional
Pseudomonas aeruginosa [6] = test: Antimicrobial activity against colistin resistant Pseudomonas aeruginosa 7197/19 assessed as bacterial growth inhibition incubated for 20 hrs by broth microdilution method; type: functional
Acinetobacter baumannii [7] = test: Antimicrobial activity against colistin resistant Acinetobacter baumannii clinical isolate 3 assessed as bacterial growth inhibition incubated for 20 hrs by broth microdilution method; type: functional
Escherichia coli [8] = test: Antibacterial activity against […] Escherichia coli clinical isolate 2 assessed as bacterial growth inhibition incubated for 20 hrs by broth microdilution method; type: functional
Escherichia coli [9] = test: Antibacterial activity against […] Escherichia coli ATCC 25922 assessed as bacterial growth inhibition incubated for 20 hrs by broth microdilution method; type: functional
Acinetobacter baumannii [10] = test: Antimicrobial activity against colistin resistant Acinetobacter baumannii clinical isolate 4 assessed as bacterial growth inhibition incubated for 20 hrs by broth microdilution method; type: functional
Acinetobacter baumannii [11] = test: Antimicrobial activity against colistin resistant Acinetobacter baumannii clinical isolate 1 assessed as bacterial growth inhibition incubated for 20 hrs by broth microdilution method; type: functional
Escherichia coli [12] = test: Antibacterial activity against Escherichia coli ATCC 25922 assessed as bacterial growth inhibition incubated for 20 hrs by broth microdilution method; type: functional
Pseudomonas aeruginosa [13] = test: Antimicrobial activity against Pseudomonas aeruginosa PAO1 assessed as bacterial growth inhibition incubated for 20 hrs by broth microdilution method; type: functional
Cell membrane = test: Induction of membrane destabilization in Escherichia coli MG1655 assessed as SYTOX uptake at 2 times MIC measured every 5 mins for 120 mins by microplate reader assay; type: cell membranes
Acinetobacter baumannii [14] = test: Antimicrobial activity against Acinetobacter baumannii ATCC 19606 assessed as bacterial growth inhibition incubated for 20 hrs by broth microdilution method; type: functional
Acinetobacter baumannii [15] = test: Antimicrobial activity against colistin resistant Acinetobacter baumannii ATCC 3658/17 assessed as bacterial growth inhibition incubated for 20 hrs by broth microdilution method; type: functional
Klebsiella pneumoniae [16] = test: Antimicrobial activity against colistin resistant Klebsiella pneumoniae ATCC 13883 assessed as bacterial growth inhibition incubated for 20 hrs by broth microdilution method; type: functional
Klebsiella pneumoniae [17] = test: Antimicrobial activity against colistin resistant Klebsiella pneumoniae clinical isolate 3 assessed as bacterial growth inhibition incubated for 20 hrs by broth microdilution method; type: functional
Escherichia coli [18] = test: Antibacterial activity against […] Escherichia coli clinical isolate 3 assessed as bacterial growth inhibition incubated for 20 hrs by broth microdilution method; type: functional
Klebsiella pneumoniae [19] = test: Antimicrobial activity against colistin resistant Klebsiella pneumoniae clinical isolate 6 assessed as bacterial growth inhibition incubated for 20 hrs by broth microdilution method; type: functional
Acinetobacter baumannii [20] = test: Antimicrobial activity against colistin resistant Acinetobacter baumannii clinical isolate 2 assessed as bacterial growth inhibition incubated for 20 hrs by broth microdilution method; type: functional
Pseudomonas aeruginosa [21] = test: Antimicrobial activity against colistin resistant Pseudomonas aeruginosa clinical isolate 1 assessed as bacterial growth inhibition incubated for 20 hrs by broth microdilution method; type: functional
Acinetobacter baumannii [22] = test: Antimicrobial activity against colistin resistant Acinetobacter baumannii ATCC 19606 assessed as bacterial growth inhibition incubated for 20 hrs by broth microdilution method; type: functional
Klebsiella pneumoniae [23] = test: Antimicrobial activity against colistin resistant Klebsiella pneumoniae clinical isolate 5 assessed as bacterial growth inhibition incubated for 20 hrs by broth microdilution method; type: functional
Escherichia coli [24] = test: Antibacterial activity against […] Escherichia coli clinical isolate 1 assessed as bacterial growth inhibition incubated for 20 hrs by broth microdilution method; type: functional
Klebsiella pneumoniae [25] = test: Antimicrobial activity against colistin resistant Klebsiella pneumoniae clinical isolate 4 assessed as bacterial growth inhibition incubated for 20 hrs by broth microdilution method; type: functional

| Molecule | MIC (Pseudomonas aeruginosa [1]) | MIC (Klebsiella pneumoniae [2]) | MIC (Escherichia coli [3]) | MIC (Klebsiella pneumoniae [4]) | MIC (Klebsiella pneumoniae [5]) | MIC (Pseudomonas aeruginosa [6]) | MIC (Acinetobacter baumannii [7]) | MIC (Escherichia coli [8]) | MIC (Escherichia coli [9]) | MIC (Acinetobacter baumannii [10]) | MIC (Acinetobacter baumannii [11]) | MIC (Escherichia coli [12]) | MIC (Pseudomonas aeruginosa [13]) | Activity (Cell membrane) | MIC (Acinetobacter baumannii [14]) | MIC (Acinetobacter baumannii [15]) | MIC (Klebsiella pneumoniae [17]) | MIC (Escherichia coli [18]) | MIC (Escherichia coli [24]) | MIC (Klebsiella pneumoniae [25]) | further results |
| --- | --- | --- | --- | --- | --- | --- | --- | --- | --- | --- | --- | --- | --- | --- | --- | --- | --- | --- | --- | --- | --- |
| CCCCCCCC(=O)N[C@@H](CCN)C(=O)N[C@H](C(=O)N[C@@H](CCN)C(=O)N[C@H]1CCNC(=O)[C@H]([C@@H](C)O)NC(=O)[C@H](CCN)NC(=O)[C@H](CCN)NC(=O)[C@H](CCC(C)C)NC(=O)[C@@H](Cc2ccccc2)NC(=O)[C@H](CCN)NC1=O)[C@@H](C)O (Octanoyl-[Dab]T[Dab][Dab][Dab][dF][hLeu][Dab][Dab]T; lactam 4-C) | 0.25 µg/mL (≈ 0.208 µM) | 16 µg/mL (≈ 13.3 µM) | 1 µg/mL (≈ 0.831 µM) | 0.25 µg/mL (≈ 0.208 µM) | 8 µg/mL (≈ 6.65 µM) | 0.5 µg/mL (≈ 0.415 µM) | 0.5 µg/mL (≈ 0.415 µM) | 0.5 µg/mL (≈ 0.415 µM) | 0.125 µg/mL (≈ 0.104 µM) | 2 µg/mL (≈ 1.66 µM) | 4 µg/mL (≈ 3.32 µM) | < 0.125 µg/mL | < 0.125 µg/mL |  |  |  |  |  |  |  |  |
| CCCCCCCC(=O)N[C@@H](CCN)C(=O)N[C@H](C(=O)N[C@@H](CCN)C(=O)N[C@H]1CCNC(=O)[C@H]([C@@H](C)O)NC(=O)[C@H](CCN)NC(=O)[C@H](CCN)NC(=O)C(CCCCCC)NC(=O)[C@@H](Cc2ccccc2)NC(=O)[C@@H](CCN)NC1=O)[C@H](C)O (stereo not given in full) |  |  |  |  |  |  |  |  |  |  |  |  |  | Active |  |  |  |  |  |  |  |
| CCCCCCCC(=O)N[C@@H](CCN)C(=O)N[C@H](C(=O)N[C@@H](CCN)C(=O)N[C@H]1CCNC(=O)[C@H]([C@@H](C)O)NC(=O)[C@H](CCN)NC(=O)[C@H](CCN)NC(=O)[C@H](Cc2ccccc2)NC(=O)[C@@H](CCc2ccccc2)NC(=O)[C@H](CCN)NC1=O)[C@@H](C)O (Octanoyl-[Dab]T[Dab][Dab][Dab][d(hPhe)]F[Dab][Dab]T; lactam 4-C) |  |  | 2 µg/mL (≈ 1.62 µM) | 2 µg/mL (≈ 1.62 µM) |  | 0.25 µg/mL (≈ 0.202 µM) |  |  |  |  |  | 0.5 µg/mL (≈ 0.404 µM) | 0.25 µg/mL (≈ 0.202 µM) |  | 0.125 µg/mL (≈ 0.101 µM) | 1 µg/mL (≈ 0.808 µM) |  |  |  |  |  |
| POLYMYXIN B | 0.25 µg/mL | > 16 µg/mL | 2 µg/mL | 0.5 µg/mL | 8 µg/mL | 8 µg/mL | 8 µg/mL | 2 µg/mL | 0.125 µg/mL | 16 µg/mL | > 16 µg/mL | 0.25 µg/mL | 0.25 µg/mL |  | 0.25 µg/mL | 8 µg/mL | 4 µg/mL | 4 µg/mL | 2 µg/mL | 16 µg/mL | MIC (Klebsiella pneumoniae [16]): 16 µg/mL; MIC (Klebsiella pneumoniae [19]): 16 µg/mL; MIC (Acinetobacter baumannii [20]): > 16 µg/mL; MIC (Pseudomonas aeruginosa [21]): 4 µg/mL; MIC (Acinetobacter baumannii [22]): 0.125 µg/mL; MIC (Klebsiella pneumoniae [23]): > 16 µg/mL |
| CCCCCCCC(=O)N[C@@H](CCN)C(=O)N[C@H](C(=O)N[C@@H](CCN)C(=O)N[C@H]1CCNC(=O)[C@H]([C@@H](C)O)NC(=O)[C@H](CCN)NC(=O)[C@H](CCN)NC(=O)[C@H](CCc2ccccc2)NC(=O)[C@@H](CC(C)C)NC(=O)[C@H](CCN)NC1=O)[C@@H](C)O (Octanoyl-[Dab]T[Dab][Dab][Dab][dL][hPhe][Dab][Dab]T; lactam 4-C) | 0.25 µg/mL (≈ 0.208 µM) | 4 µg/mL (≈ 3.32 µM) | 1 µg/mL (≈ 0.831 µM) |  | 4 µg/mL (≈ 3.32 µM) | 1 µg/mL (≈ 0.831 µM) | 1 µg/mL (≈ 0.831 µM) | 1 µg/mL (≈ 0.831 µM) |  |  |  | 0.125 µg/mL (≈ 0.104 µM) | 0.25 µg/mL (≈ 0.208 µM) |  |  |  | 4 µg/mL (≈ 3.32 µM) | 0.5 µg/mL (≈ 0.415 µM) | 1 µg/mL (≈ 0.831 µM) | 4 µg/mL (≈ 3.32 µM) |  |
| CCCCCCCC(=O)N[C@@H](CCN)C(=O)N[C@H](C(=O)N[C@@H](CCN)C(=O)N[C@H]1CCNC(=O)[C@H]([C@@H](C)O)NC(=O)[C@H](CCN)NC(=O)[C@H](CCN)NC(=O)C(CCCc2ccccc2)NC(=O)[C@@H](Cc2ccccc2)NC(=O)[C@@H](CCN)NC1=O)[C@H](C)O (stereo not given in full) |  |  |  |  |  |  |  |  |  |  |  |  |  | Active |  |  |  |  |  |  |  |
